What was measured:
[1] = system: MV4-11 (expressing FLT3/ITD mutant gene); assay: Cell proliferation, Cell Titer-Glo, MV4-11; format: cell-based; settings: Homo sapiens, MV4-11; incubated for 72 hours; read-out: MV4-11 IC50
In short: (§1)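 Read-out: luminescence from ATP in live cells (CellTiter-Glo), taken as viable cell number. Cell lines were built in-house.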

[2] = system: MOLM-13 (expressing FLT3/ITD mutant gene and wild-type FLT3 gene); assay: Cell proliferation, Cell Titer-Glo, MOLM-13; format: cell-based; settings: Homo sapiens, MOLM-13; incubated for 72 hours; read-out: MOLM-13 IC50
Protocol: (§2) The above cell lines were constructed by our laboratory.
(§3) The number of viable cells was determined by quantification of ATP in living cells using the Cell Titer-Glo® (Promega, USA) chemiluminescence cell viability assay kit.

[3] = system: TEL-BaF3-FLT3/ITD (stably expressing FLT3/ITD mutant activated kinase); assay: Cell proliferation, Cell Titer-Glo, TEL-BaF3-FLT3/ITD; format: cell-based, mouse; settings: Mus musculus, 72 h, incubated for 72 hours; read-out: TEL-BaF3-FLT3/ITD IC50
In short: as §1

[4] = system: BaF3-FLT3-ITD-F691L (stably expressing FLT3/ITD F691L mutant activated kinase); assay: Cell proliferation, Cell Titer-Glo, BaF3-FLT3-ITD-F691L; format: cell-based; settings: Mus musculus; incubated for 72 hours; read-out: BaF3-FLT3-ITD-F691L IC50
Protocol: as §2, §3

[5] = system: pro-B cell BaF3; assay: Cell proliferation, Cell Titer-Glo, BaF3; format: cell-based; settings: Mus musculus, incubated for 72 hours
Protocol: as §2, §3

[6] = system: U937 (expressing wild-type FLT3 gene); assay: Cell proliferation, Cell Titer-Glo, U937; format: cell-based, human; settings: Homo sapiens, U-937, 72 h, incubated for 72 hours; read-out: U937 IC50
In short: as §1

[7] = system: OCI-AML-3 (expressing FLT3 A680V mutant gene); assay: Cell proliferation, Cell Titer-Glo, OCI-AML3; format: cell-based; settings: Homo sapiens, incubated for 72 hours
Protocol: as §2, §3

[8] = system: TEL-BaF3-BMX (stably expressing BMX kinase); assay: Cell proliferation, Cell Titer-Glo, TEL-BaF3-BMX; format: cell-based; settings: Mus musculus; incubated for 72 hours
Protocol: as §2, §3

[9] = system: TPR-MET-BaF3 (stably expressing MET kinase); assay: Cell proliferation, Cell Titer-Glo, TPR-MET-BaF3; format: cell-based; settings: Mus musculus; incubated for 72 hours
Protocol: as §2, §3

[10] = system: TEL-BaF3-BLK (stably expressing BLK kinase); assay: Cell proliferation, Cell Titer-Glo, TEL-BaF3-BLK; format: cell-based; settings: Mus musculus; incubated for 72 hours
Protocol: as §2, §3

[11] = molecular target: BTK protein kinase (Homo sapiens (Human), UniProt Q06187); assay: In vitro inhibition activity (enzymatic activity), ADP-Glo, BTK; format: biochemical; settings: ATP 10 μM
[12] = system: MOLM-14 (expressing FLT3/ITD mutant gene and wild-type FLT3 gene); assay: Cell proliferation, Cell Titer-Glo, MOLM-14; format: cell-based; settings: Homo sapiens, MOLM-14; incubated for 72 hours; read-out: MOLM-14 IC50
Protocol: as §2, §3

[13] = system: TEL-BaF3-FLT3-D835Y (stably expressing FLT3 D835Y mutant activated kinase); assay: Cell proliferation, Cell Titer-Glo, TEL-BaF3-FLT3-D835Y; format: cell-based; settings: Mus musculus; incubated for 72 hours; read-out: TEL-BaF3-FLT3-D835Y IC50
Protocol: as §2, §3

[14] = system: TEL-cKIT-BaF3 (stably expressing cKIT kinase); assay: Cell proliferation, Cell Titer-Glo, TEL-cKIT-BaF3; format: cell-based; settings: Mus musculus; incubated for 72 hours
Protocol: as §2, §3

[15] = system: TEL-BaF3-EGFR (stably expressing EGFR kinase); assay: Cell proliferation, Cell Titer-Glo, TEL-BaF3-EGFR; format: cell-based; settings: Mus musculus; incubated for 72 hours
Protocol: as §2, §3

[16] = system: TEL-JAK1-BaF3 (stably expressing JAK1 kinase); assay: Cell proliferation, Cell Titer-Glo, TEL-JAK1-BaF3; format: cell-based; settings: Mus musculus; incubated for 72 hours
Protocol: as §2, §3

BTK protein kinase, sequence (Q06187 whole entry): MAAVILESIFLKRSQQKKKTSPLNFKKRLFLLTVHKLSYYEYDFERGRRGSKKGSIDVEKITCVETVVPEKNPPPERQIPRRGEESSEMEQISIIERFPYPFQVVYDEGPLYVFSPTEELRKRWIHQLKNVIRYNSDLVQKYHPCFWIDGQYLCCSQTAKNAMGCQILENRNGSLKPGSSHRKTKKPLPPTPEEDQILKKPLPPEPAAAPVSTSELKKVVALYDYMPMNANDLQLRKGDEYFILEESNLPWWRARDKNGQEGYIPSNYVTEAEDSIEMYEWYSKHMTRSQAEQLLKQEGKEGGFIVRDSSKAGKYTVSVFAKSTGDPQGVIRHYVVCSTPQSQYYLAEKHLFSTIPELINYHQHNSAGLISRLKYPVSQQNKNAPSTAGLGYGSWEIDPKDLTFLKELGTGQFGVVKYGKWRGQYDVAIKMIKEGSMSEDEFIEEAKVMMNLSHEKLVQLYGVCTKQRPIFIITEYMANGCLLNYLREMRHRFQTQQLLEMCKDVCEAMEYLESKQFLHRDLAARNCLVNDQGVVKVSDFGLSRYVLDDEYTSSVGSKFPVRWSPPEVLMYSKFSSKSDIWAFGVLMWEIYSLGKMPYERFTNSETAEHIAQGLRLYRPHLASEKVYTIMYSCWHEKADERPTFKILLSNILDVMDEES

Row | SMILES | IC50 [1] [nM] | IC50 [2] [nM] | IC50 [3] [nM] | IC50 [4] [nM] | IC50 [5] [nM] | IC50 [6] [nM] | IC50 [7] [nM] | IC50 [8] [nM] | IC50 [9] [nM] | IC50 [10] [nM] | IC50 [11] [nM] | IC50 [12] [nM] | IC50 [13] [nM] | IC50 [14] [nM] | IC50 [15] [nM] | IC50 [16] [nM]
1 | CC(C)[C@@H](N)C(=O)N1CCC[C@@H](n2nc(-c3ccc(Oc4ccccc4)cc3)c3c(N)ncnc32)C1 (stereo in doubt) [Compound 45, (R)-2-amino-1-((R)-3-(4-amino-(4-phenoxyphenyl)-1H-pyrazolo[3,4-d]pyrimidin-1-yl)piperidin-1-yl)-3-methylbutanone] | 27 | 25 | 17 | 370 | 1400 | > 10000 | 4200 | 92 | 1380 | 96 | 260 | – | – | – | – | –
2 | Nc1ncnc2c1c(-c1ccc(Oc3ccccc3)cc1)nn2[C@@H]1CCCN(C(=O)C(F)(F)F)C1 [Compound 2, (R)-1-(3-(4-amino-(4-phenoxyphenyl)-1H-pyrazolo[3,4-d]pyrimidin-1-yl)piperidin-1-yl)-2,2,2-trifluoroethanone] | 300 | 290 | 120 | – | 2000 | > 10000 | – | 82 | 4700 | 630 | – | 720 | 130 | 1900 | 6100 | 1400
3 | Nc1ncnc2c1c(-c1ccc(Oc3ccccc3)cc1)nn2[C@@H]1CCCN(S(N)(=O)=O)C1 [Compound 4, (R)-3-(4-amino-(4-phenoxyphenyl)-1H-pyrazolo[3,4-d]pyrimidin-1-yl)piperidin-1-sulfonamide] | 300 | 230 | – | – | > 10000 | – | – | 820 | > 10000 | 1400 | – | 680 | 160 | 4900 | > 10000 | > 10000
4 | Nc1ncnc2c1c(-c1ccc(Oc3ccccc3)cc1)nn2[C@@H]1CCCN(C(=O)[C@H](N)Cc2c[nH]c3ccccc23)C1 [Compound 8, (R)-2-amino-1-((R)-3-(4-amino-(4-phenoxyphenyl)-1H-pyrazolo[3,4-d]pyrimidin-1-yl)piperidin-1-yl)-3-(1H-indol-3-yl)propan-1-one] | 270 | 180 | 270 | – | 620 | 1000 | – | 550 | – | 560 | 254 | 310 | 89 | 750 | 1400 | 270
5 | Nc1ncnc2c1c(-c1ccc(Oc3ccccc3)cc1)nn2[C@@H]1CCCN(C(=O)[C@H](N)Cc2ccc(O)cc2)C1 [Compound 10, (R)-2-amino-1-((R)-3-(4-amino-(4-phenoxyphenyl)-1H-pyrazolo[3,4-d]pyrimidin-1-yl)piperidin-1-yl)-3-(4-hydroxyphenyl)propan-1-one] | 61 | 64 | 110 | – | 1200 | 3400 | – | 840 | 1400 | 1000 | 128 | 110 | 64 | 1100 | 3700 | 400
6 | CC(C)C[C@H](N)C(=O)N1CCC[C@@H](n2nc(-c3ccc(Oc4ccccc4)cc3)c3c(N)ncnc32)C1 [Compound 12, (S)-2-amino-1-((R)-3-(4-amino-(4-phenoxyphenyl)-1H-pyrazolo[3,4-d]pyrimidin-1-yl)piperidin-1-yl)-4-methylpentan-1-one] | 64 | 46 | 45 | – | – | 1600 | – | 600 | 1500 | 960 | 349 | 77 | 48 | 1000 | – | 520
7 | N#CCC(=O)N1CCC[C@@H](n2nc(-c3ccc(Oc4ccccc4)cc3)c3c(N)ncnc32)C1 [Compound 20] | 200 | 160 | 120 | – | > 10000 | > 10000 | – | 47 | > 10000 | 520 | – | 410 | 150 | 3300 | 4700 | > 10000
8 | CC(O)C(=O)N1CCC[C@@H](n2nc(-c3ccc(Oc4ccccc4)cc3)c3c(N)ncnc32)C1 (stereo partly drawn) [Compound 23, 1-((R)-3-(4-amino-(4-phenoxyphenyl)-1H-pyrazolo[3,4-d]pyrimidin-1-yl)piperidin-1-yl)-2-hydroxylpropan-1-one] | 320 | 290 | 91 | – | > 10000 | 4300 | – | 88 | > 10000 | 2800 | 204 | 630 | 430 | 4800 | 6500 | > 10000
9 | CC[C@@H](C)[C@@H](N)C(=O)N1CCC[C@@H](n2nc(-c3ccc(Oc4ccccc4)cc3)c3c(N)ncnc32)C1 [Compound 25, (2R,3R)-2-amino-1-((R)-3-(4-amino-(4-phenoxyphenyl)-1H-pyrazolo[3,4-d]pyrimidin-1-yl)piperidin-1-yl)-3-methylpentan-1-one] | 120 | 120 | 88 | – | 1700 | 1900 | – | 510 | 1700 | 1100 | 216 | 190 | 180 | 3100 | 890 | 3300
10 | CC(C)C[C@@H](N)C(=O)N1CC[C@@H](n2nc(-c3ccc(Oc4ccccc4)cc3)c3c(N)ncnc32)C1 [Compound 28, (R)-2-amino-1-((R)-3-(4-amino-(4-phenoxyphenyl)-1H-pyrazolo[3,4-d]pyrimidin-1-yl)pyrrolidin-1-yl)-4-methylpentan-1-one] | 120 | 1900 | 41 | – | 2150 | – | – | 390 | – | 83 | – | – | – | 5300 | – | 910
11 | NC(=O)CC[C@@H](N)C(=O)N1CCC[C@@H](n2nc(-c3ccc(Oc4ccccc4)cc3)c3c(N)ncnc32)C1 [Compound 57] | 60 | 760 | 120 | – | 8430 | – | – | 2300 | – | 540 | – | – | – | 3400 | – | 4710
12 | NCC(=O)N1CC[C@@H](n2nc(-c3ccc(Oc4ccccc4)cc3)c3c(N)ncnc32)C1 [Compound 64] | 175 | 480 | 80 | – | 7590 | – | – | 90 | – | 9.8 | – | – | – | 2500 | – | 1300
13 | CN(C)CC(=O)N1CC[C@@H](n2nc(-c3ccc(Oc4ccccc4)cc3)c3c(N)ncnc32)C1 [Compound 65] | 83 | 230 | 41 | – | 8420 | – | – | 1200 | – | 360 | – | – | – | 3500 | – | 890
